From PMC10714133 (RSC Advances, 2023) come the findings set out here.

One assay concerns P. knowlesi A1H1. The experiment in a line: Plasmodium lactate dehydrogenase. The format is cell-based, Plasmodium knowlesi. As to conditions: for Selectivity index (SI) P. knowlesi: IC50 WRL-68 / EC50 PkA1H1; for Antimalarial activity class against A1H1 strain: class by EC50 threshold; for EC50 against A1H1 strain, fold higher than CQ: relative to chloroquine diphosphate.
The test system of another assay is P. falciparum 3D7. Put plainly: Plasmodium lactate dehydrogenase. The format is cell-based, Plasmodium falciparum. As to conditions: for Selectivity index (SI) P. falciparum: IC50 WRL-68 / EC50 Pf3D7; for Antimalarial activity class against 3D7 strain: class by EC50 threshold; for EC50 against 3D7, fold higher than CQ: relative to chloroquine diphosphate.
For assay [1], the system named is WRL-68 cell (human normal liver cell line). The experiment in a line: MTT cytotoxicity assay. Type of assay: cell-based. As to conditions: read-out: WRL-68 cell (mammalian cell) IC50 (μM) ± SD, 72 hours incubation. On the technique in general: Tetrazolium assays rely on reduction of a dye to a coloured formazan, in cell work by metabolically active cells.

As a reminder, the IC50 is the concentration at which inhibition is half-maximal.

`CCN(CC)CCCC(C)Nc1ccnc2cc(Cl)ccc12` (stereo not drawn) [CQ, chloroquine diphosphate, reference compound]: in the assay with P. knowlesi A1H1, the “Selectivity index (SI) P. knowlesi” value is above 2500. The “Selectivity index (SI) P. falciparum” value with P. falciparum 3D7 is on record as above 2500.
Take `O=C(/C=C/c1cccc(O)c1)c1ccc(F)cc1` [Compound 1a, (E)-1-(4-Fluorophenyl)-3-(3-hydroxyphenyl)prop-2-en-1-one]: the “Selectivity index (SI) P. knowlesi” value with P. knowlesi A1H1 was determined as 1.34. The “Selectivity index (SI) P. falciparum” value in the assay with P. falciparum 3D7 was determined as 1.50.
For `O=C(/C=C/c1ccc(O)cc1)c1ccc(F)cc1` [Compound 1b, (E)-1-(4-Fluorophenyl)-3-(4-hydroxyphenyl)prop-2-en-1-one], the “Selectivity index (SI) P. knowlesi” value in the assay on P. knowlesi A1H1 was found to be 0.14.
Same read-out and setting: the same measure for `O=C(/C=C/c1ccc(O)cc1)c1ccc(Cl)cc1` [Compound 1c, (E)-1-(4-Chlorophenyl)-3-(4-hydroxyphenyl)prop-2-en-1-one]: 0.52.
On the same count and under the same terms, the same measure for `O=C(/C=C/c1cccc(O)c1)c1ccc(Cl)cc1` [Compound 1d, (E)-1-(4-Chlorophenyl)-3-(3-hydroxyphenyl)prop-2-en-1-one]: 0.31.
Regarding `O=C(/C=C/c1ccc(CN2CCCCC2)c(O)c1)c1ccc(F)cc1` [Compound 2a, (E)-1-(4-Fluorophenyl)-3-(3-hydroxy-4-(piperidin-1-ylmethyl)phenyl)prop-2-en-1-one], in the assay with P. knowlesi A1H1, the “Selectivity index (SI) P. knowlesi” value is 10.50; the “Antimalarial activity class against A1H1 strain” value is reported as “active”; the “EC50 against A1H1 strain, fold higher than CQ” value is listed as “about 66 fold”. Moreover, in the assay with P. falciparum 3D7, the “Antimalarial activity class against 3D7 strain” value is “potential (EC50 < 1 μM as potential activity)” and the “EC50 against 3D7, fold higher than CQ” value was “about 48 fold”.
In the case of `O=C(/C=C/c1ccc(O)c(CN2CCOCC2)c1)c1ccc(F)cc1` [Compound 2b, (E)-1-(4-Fluorophenyl)-3-(4-hydroxy-3-(morpholinomethyl)phenyl)prop-2-en-1-one], the “Selectivity index (SI) P. knowlesi” value in the assay with P. knowlesi A1H1 worked out at 0.65.
As to `O=C(/C=C/c1ccc(O)c(CN2CCCCC2)c1)c1ccc(F)cc1` [Compound 2c, (E)-1-(4-Fluorophenyl)-3-(4-hydroxy-3-(piperidin-1-ylmethyl)phenyl)prop-2-en-1-one], in the assay with P. knowlesi A1H1, the “Selectivity index (SI) P. knowlesi” value came out at 1.09.
Turning to `CC1CCN(Cc2cc(/C=C/C(=O)c3ccc(Cl)cc3)ccc2O)CC1` [Compound 2f, (E)-1-(4-Chlorophenyl)-3-(4-hydroxy-3-((4-methylpiperidin-1-yl)methyl)phenyl)prop-2-en-1-one], in the assay on P. knowlesi A1H1, the “Selectivity index (SI) P. knowlesi” value stood at 4.10 and the “Antimalarial activity class against A1H1 strain” value was “active”. Moreover, in the assay with P. falciparum 3D7, the “Selectivity index (SI) P. falciparum” value is listed as 4.73 and the “Antimalarial activity class against 3D7 strain” value is “good”.
Regarding `CC1CCN(Cc2ccc(/C=C/C(=O)c3ccc(Cl)cc3)cc2O)CC1` [Compound 2g, (E)-1-(4-Chlorophenyl)-3-(3-hydroxy-4-((4-methylpiperidin-1-yl)methyl)phenyl)prop-2-en-1-one], the “Selectivity index (SI) P. knowlesi” value in the assay with P. knowlesi A1H1 was 0.47. Further, in the assay on P. falciparum 3D7, the “Selectivity index (SI) P. falciparum” value is reported as 0.54.
In the case of `O=C(/C=C/c1ccc(CN2CCCCC2)c(O)c1)c1ccc(Br)cc1` [Compound 2h, (E)-1-(4-Bromophenyl)-3-(3-hydroxy-4-(piperidin-1-ylmethyl)phenyl)prop-2-en-1-one], the “EC50 against A1H1 strain, fold higher than CQ” value in the assay on P. knowlesi A1H1 was “about 3 fold”. Besides, in the assay on P. falciparum 3D7, the “Antimalarial activity class against 3D7 strain” value is given as “potential (EC50 < 1 μM as potential activity)” and the “EC50 against 3D7, fold higher than CQ” value is 83 fold. Moreover, the half-maximal inhibitory concentration (IC50) in assay [1] is above 99 µM.
